Results published in patent publication US20160287545A1, “COMPOUND PARTICULARLY FOR TREATING DEPRESSION AND ANXIETY” (priority 2012, published 2016).

Columns and labels:
mouse [1] = settings: cited from earlier work
mouse [2] = settings: cited from earlier work; remark: listed apart in the source
[3] = cited from earlier work
CD1 mice = experiment: swimming test in CD1 mice, antidepressant action of inhaled terpenes versus imipramine; assay type: in vivo; settings: for isoeffect dose per body weight taking into account mean absorption factor (60%): 700x0.6, inhaling; for isoeffect dose with respect to imipramine: individual single inhalation giving approximately the same immobility time as imipramine, vaporized dose; for intrinsic activity (full agonist action, dose-effect comparison with imipramine): swimming test, inhaled; for antidepressant activity: vaporized, inhaled for 24 hours (12+12 hours); for isoeffect dose per body weight: versus 30 mg/kg of imipramine
Method: 4. For each test, CD-1® (ICR) Specific Pathogen Free NAF mice (16/18 g upon arrival) were used, originating from the supplier facility Charles River Laboratories, Calco, Italy; 5 mice for the control group, 5 mice for the reference test with imipramine, 5 mice for the substance tested in the first 4 tests and then 10 mice for all the other tests. The choice of CD1 mice was determined by the fact that it is considered to be the animal model suitable for performing the swimming test for the evaluation of substances having an antidepressant action.
5. For terpene vaporization, “Elettromatt Turispharma” electric vaporizers were used (PCT/EP 97/01897, inventors Bevilacqua M, Zaccagna C A), heated to a constant temperature of 90° C.
The three groups of mice were placed in three transparent plastic boxes with the size of 150 cm×75 cm and a volume di […] at a controlled temperature (19.0-21.0° C.), in air prefiltered with an HEPA absolute filter without flow, humidity (40-50%) and darkness/light cycle (12 hours/12 hours).
The control group received the carrier (physiological solution) by IP pathway.
The administration path of the substances being considered was intraperitoneal for imipramine and the pulmonary path was used for the terpene substances being considered, always vaporized with the same electric vaporizers.
Reference test substance: imipramine 30 mg/Kg/ip=30.000 mcg/Kg/ip, equal to 0.6 mg per animal, administered 30 minutes before the test.
Subsequent tests were performed with the individual components (35 mg repeated after 12 hours), in pairs (35 mg+35 mg, repeated after 12 hours) and then all three together (35+35+35 mg repeated after 12 hours).
The treatment was performed 30 minutes before the test for the control group and for the imipramine group intraperitoneally. The third group was subject, after the T0 test, to vaporization for 24 hours (12+12 hours) of the anonymous substance being considered.

rat = settings: cited from earlier work
[4] = in vivo; cited from earlier work
[5] = cited from earlier work; remark: listed apart in the source
patients with bulimia = settings: followed on for two years; cited from earlier work
[6] = inhalation for 2 hours during a 50 W workload, healthy volunteers; cited from earlier work
rats = settings: inhaling, swimming test; cited from earlier work
[7] = rat; cited from earlier work
[8] = 200 and 400 mg/kg orally, mouse

CC12CCC(CC1)C(C)(C)O2 [1,8-cineol]
acute toxicity, oral dose (mouse [1]): 2480 mg/kg | immobility time (mouse [2]; [8]): significant increase in the immobility time | latency of pentobarbital sleep (mouse [2]; [8]): reduced latency of pentobarbital sleep | dose observed in the literature (mouse [2]; in the mouse): 200 to 400 mg/kg | motor coordination in the rotarod test (mouse [2]; orally, mouse): no effects on motor coordination | time to detection in blood after inhaling [3]: 5 min | time to concentration maximum in blood ([3]; inhaling): ≤ 18 min | isoeffect dose per body weight taking into account mean absorption factor (60%) (CD1 mice): 420 mg/kg | isoeffect dose with respect to imipramine (CD1 mice): 70 mg | intrinsic activity (full agonist action, dose-effect comparison with imipramine) (CD1 mice): 1 | antidepressant activity (CD1 mice): evident antidepressant activity | isoeffect dose per body weight (CD1 mice): 700 mg/kg | effect of pretreatment with naloxone on anti-nociceptive action (rat; oral dose between 100 and 400 mg/kilograms): not canceled out by pretreatment with naloxone | anti-nociceptive action (rat; rat): comparable to morphine

CC(=O)O[C@@H]1CC[C@@]2(C)[C@@H](CC[C@]3(C)[C@@H]2C(=O)C=C2[C@@H]4[C@@H](C)[C@H](C)CC[C@]4(C)CC[C@]23C)[C@@]1(C)C(=O)O [AKBA, acetyl-11-keto-beta-boswellic acid]
brain/plasma ratio [4]: ~0.81

CN(C)CCCN1c2ccccc2CCc2ccccc21 [imipramine, imipramine chloride hydrate]
solubility [5]: 50 mg/mL | patients with considerable success (patients with bulimia): 19 out of 20 | total mean immobility time (CD1 mice; imipramine 30 mg/Kg ip 30 minutes before the test, mean of all 9 tests, 45 mice): 41.11±16.12

C=C(C)[C@H]1CC=C(C)CC1 [limonene, (R)-(+)-limonene]
pulmonary uptake, of the administered quantity [6]: 70% | immobility time (rats): reduces significantly the immobility time | oral bioavailability [7]: 43.0% | isoeffect dose per body weight taking into account mean absorption factor (60%) (CD1 mice): 420 mg/kg | isoeffect dose with respect to imipramine (CD1 mice): 70 mg | intrinsic activity (full agonist action, dose-effect comparison with imipramine) (CD1 mice): 1 | antidepressant activity (CD1 mice): evident antidepressant activity | isoeffect dose per body weight (CD1 mice): 700 mg/kg

C[C@H]1[C@H](C)CC[C@]2(C)CC[C@]3(C)C(=CC(=O)[C@@H]4[C@@]5(C)CC[C@@H](O)[C@](C)(C(=O)O)[C@@H]5CC[C@]43C)[C@H]12 [KBA, 11-keto-beta-boswellic acid]
brain/plasma ratio [4]: approximately 0.51
